Experimental data published in patent US20050020519A1, “Modulation of insulin-regulated aminopeptidase (irap)/angiotensin iv (at4) receptor activity” (priority 2001, published 2005).
Where two headings read alike, the source gives them in different places. Where a SMILES comes first, the peptide text is derived from it.

Assays:
SK-N-MC cells = experiment: [^3H]-thymidine uptake in SK-N-MC cells; type: cell-based; settings: Ang IV 10^−10-10^−7 M; LVVYPWTQRF 10^−10-10^−6 M
Procedure: (§1) NG108-15 and SK-N-MC cells were cultured in DMEM supplemented with 10% heat-inactivated FCS, 2% HAT supplement, and 100 U/ml penicillin/streptomycin. Cells were routinely used between passages 20 and 30.
(§2) Cells were plated at a density of 3×10^4 cells/well in 24 well Falcon plates that had been coated with 0.1 mg/ml poly-L-lysine hydrobromide. The cells were allowed to adhere overnight, and then serum deprived for 48 h before being treated with […] (SEQ ID NO:2) and/or Ang IV (10^−10 to 10^−6 M) for 24 h in medium with or without serum. Five hours before the end of the experiment 1 μCi of ^3H-thymidine was added to each well. At the completion of the incubation, cells were washed twice with 1 ml of PBS at 4° C., followed by 5% trichloroacetic acid at 4° C. for 30 min, which was aspirated before solubilizing the cells in 1 ml 0.25 M NaOH and 0.1% SDS for 30 min at 37° C. Samples were then collected into 5 ml of Ready Value scintillation fluid and ^3H measured in a liquid scintillation counter.

rats [1] = settings: intracerebroventricular dose 1 nmol; cited from earlier work
NG108-15 cells = experiment: ^3H-thymidine incorporation in NG108-15 cells; type: cell-based, rat-mouse hybrid
Procedure: as §1, §2

rat hippocampal slices = experiment: Potassium-evoked ^3H-choline release from rat hippocampal slices; type: cell-based; settings: at 10^−7M
Procedure: To determine the effect of IRAP inhibitors an acetylcholine release for rat hippocampal slices in vitro, rats were anaesthetized with sodium pentobarbitone, decapitated and the brain rapidly extracted and put on ice. The two sides of the hippocampus were then dissected, and stored in Krebs buffer on ice. The tissues were sectioned into 400 μm slices using a McI1wain slicer, and incubated with 10 μM of ^3H-choline in Krebs buffer for 20 min at 37° C. Following the incubation, the sections were transferred to Brandel superfusion chambers filled with carbogenated Krebs buffer, pH7.0 containing […] hemicholinium HC-3 to prevent choline reuptake. The slices were washed for 60 min at 37° C. with Krebs buffer at a flow rate of 500 μl/min. Superfusate samples were collected at 5 min intervals for the duration of the experiment. After a stable baseline was established, the hippocampal slices were depolarised by the addition of 30 mM KCl to the Krebs buffer and infused for 4 min (stimulation period S1). The tissue was then allowed to recover for 25 min before the next stimulation period (S2). To test the effect of […] […] Fractional ^3H-choline release, expressed as a ratio of S2/S1, was then calculated for each of the different peptides at the different doses.

[2] = conditions similar to the DNA synthesis experiments
rats [3] = settings: cited from earlier work
ERK1/2 phosphorylation [4] = experiment: ERK1/2 phosphorylation in rat hippocampal slices (Western blot); type: cell-based; settings: 10^−8M, 30 min
Procedure: The potential of IRAP/AT4 ligands to activate MAPK or CREB was initially investigated on rat hippocampal slices. Rats were killed by decapitation and the hippocampi removed, four hundred μm thick slices cut and incubated in aCSF. […] Slices were then lysed in 200 μl of ice-cold lysis buffer (10 mM Tris-HCl pH 7.5, 50 mM NaCl, 1% triton X-100, 30 mM sodium pyrophosphate, 50 mM NaF, 5 μM ZnCl2, 0.1 mM sodium orthovanadate, 1 mM DTT, 5 nM okadaic acid, 1×Boehringer Protease inhibitor cocktail) and centrifuged at full speed. The lysates were then heated at 95° C. for 10 min in 6×SDS loading buffer and the proteins (30 μg per lane) resolved on 7.5% SDS-poylacrylamide gels. After transfer of proteins to PVDF membranes, blots were probed overnight at 4° C. with anti phospho-p44/42 MAP kinase (Thr202/Tyr204) antibody and detected by chemiluminescence using ECL blotting detection reagents and a Fuji LAS-1000.

3T3L1 cells = experiment: 2-deoxyglucose uptake in differentiated 3T3L1 adipocytes; settings: for basal glucose uptake: no insulin, untreated 3.3±0.67
Procedure: The effect of IRAP inhibitors on the regulation of glucose uptake was determined in 3T3L1 cells. 3T3L1 fibroblasts were differentiated by the addition of DMEM containing 5% fetal calf serum, 4 μg/ml insulin, 0.25 mM dexamethasone and 0.5 mM 3-isobutyl-1-methyl-xanthine. […] The reaction was stopped after 10 min by washing the cells in PBS. The cells were then solubilized in 0.5 N NaOH and counted.

ERK1/2 phosphorylation [5] = test system: ERK1/2 phosphorylation
Procedure: The ability of AT4 ligands to stimiuladte MAPK phosphorylation directly was investigated in HEK293 cells transfected with human IRAP. HEK293 cells were transfected with pCI-IRAP or with empty vector, plated on to 12-well plates at a density of 60,000 cells/well and grown in complete medium containing 0.2% fetal calf serum. […] The proteins were then transferred on to nitrocellulose membranes and incubated with phospho-MAPK (p44/42) antibodies and visualised with HRP-conjugated secondary antibody, using the ECL-plus western blot detection system.

[6] = target: T1, human insulin-regulated aminopeptidase (IRAP) / angiotensin IV (AT4) receptor (human, UniProt Q9UIQ6 1-1025); experiment: competitive inhibition of L-leucine-β-naphthylamide cleavage by solubilised membranes of IRAP-transfected HEK 293 cells; Ki from IC50=Ki(1+[S]/Km)
T1 construct: whole, on cells; also called AT4 receptor/IRAP; hIRAP

[7] = target: T1, human insulin-regulated aminopeptidase …; experiment: cell-based or functional assay
[8] = target: T1, human insulin-regulated aminopeptidase …; experiment: radioligand displacement of 125I-Nle-Ang IV

T1 sequence (Q9UIQ6 whole entry): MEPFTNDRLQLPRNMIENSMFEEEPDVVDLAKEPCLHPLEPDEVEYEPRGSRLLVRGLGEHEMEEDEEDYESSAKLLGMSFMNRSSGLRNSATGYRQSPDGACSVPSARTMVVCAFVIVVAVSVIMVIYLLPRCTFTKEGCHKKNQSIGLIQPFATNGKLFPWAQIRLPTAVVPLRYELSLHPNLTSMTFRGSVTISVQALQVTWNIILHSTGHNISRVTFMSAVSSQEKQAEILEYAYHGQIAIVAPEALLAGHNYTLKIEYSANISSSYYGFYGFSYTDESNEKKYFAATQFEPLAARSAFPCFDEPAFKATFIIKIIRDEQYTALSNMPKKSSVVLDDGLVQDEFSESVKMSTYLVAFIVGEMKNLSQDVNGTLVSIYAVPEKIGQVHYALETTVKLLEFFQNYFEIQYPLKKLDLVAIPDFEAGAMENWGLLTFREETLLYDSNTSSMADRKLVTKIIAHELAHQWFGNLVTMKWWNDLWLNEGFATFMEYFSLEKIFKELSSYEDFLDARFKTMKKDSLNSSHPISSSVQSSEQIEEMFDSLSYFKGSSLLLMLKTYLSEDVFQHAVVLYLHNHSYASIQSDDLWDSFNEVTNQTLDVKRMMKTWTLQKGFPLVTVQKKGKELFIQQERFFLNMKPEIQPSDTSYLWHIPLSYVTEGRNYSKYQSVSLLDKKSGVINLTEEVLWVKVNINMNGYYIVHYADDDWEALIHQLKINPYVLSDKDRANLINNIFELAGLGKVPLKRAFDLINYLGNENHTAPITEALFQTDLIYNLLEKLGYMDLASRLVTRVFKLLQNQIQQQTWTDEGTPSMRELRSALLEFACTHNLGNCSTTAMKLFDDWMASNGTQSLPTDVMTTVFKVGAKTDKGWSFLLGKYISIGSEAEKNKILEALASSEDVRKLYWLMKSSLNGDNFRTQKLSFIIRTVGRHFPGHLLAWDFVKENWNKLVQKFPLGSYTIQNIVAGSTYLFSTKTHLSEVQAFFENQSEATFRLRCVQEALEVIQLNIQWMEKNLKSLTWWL

In the case of `CC[C@H](C)[C@H](NC(=O)[C@H](Cc1ccc(O)cc1)NC(=O)[C@@H](N)C(C)C)C(=O)N[C@@H](Cc1cnc[nH]1)C(=O)N1CCC[C@H]1C(=O)N[C@@H](Cc1ccccc1)C(=O)O` [Ang IV, VYIHPF], the “increase of [^3H]-thymidine uptake” value (SK-N-MC cells) is listed as “up to 72 % above control levels”, the “latency in re-entering the dark chamber after an aversive stimulus” value (rats [1]) is listed as “increased the latency” and the “stimulation of DNA synthesis” value (NG108-15 cells; 10^−10 to 10^−6 M, alone) is listed as “did not stimulate DNA synthesis”. For the same molecule, the “effect on LVVYPWTQRF-stimulated ^3H-thymidine incorporation” value (NG108-15 cells; concomitant 10^−6 M Ang IV) was “completely abolished”, the “maximum effect on potassium-evoked ^3H-choline release” value (rat hippocampal slices) was 150 % of control and the “degradation of the peptide” value [2] was “some degradation”.

In the case of `CCCC[C@H](N)C(=O)N[C@@H](Cc1ccc(O)cc1)C(=O)N[C@H](C(=O)N[C@@H](Cc1c[nH]cn1)C(=O)N1CCC[C@H]1C(=O)N[C@@H](Cc1ccccc1)C(=O)O)[C@@H](C)CC` [Nle^1-Ang IV, Nle′-YIHPF] (HELM PEPTIDE1{[Nle].Y.I.H.P.F}$$$$V2.0; N-terminus and C-terminus assumed), the “performance in the swim maze task” value (rats [3]; chronic infusion (6 days), 0.1 to 0.5 nmol/h, lateral ventricle) is listed as “enhanced performance”, the “memory deficits induced by scopolamine” value (rats [3]; given acutely into the lateral ventricles) is listed as “reversed the memory deficits” and the ERK1/2 phosphorylation (ERK1/2 phosphorylation [4]) is listed as “induced phosphorylation of ERK1/2”. It also gave an insulin-stimulated glucose uptake (3T3L1 cells; 10^−6 M peptide with 0.7 nM insulin) of 18.3 ± 2.39 pmol/min/well, an insulin-stimulated glucose uptake (3T3L1 cells; 10^−6 M peptide with 70 nM insulin) of 23.02 ± 1.52 pmol/min/well and a basal glucose uptake (3T3L1 cells; 10^−6 M) of 7.6±1.21 pmol/min/well. It also gave an insulin-stimulated glucose uptake (3T3L1 cells; 10^−7 M peptide with 0.7 nM insulin) of 12.2 ± 2.29 pmol/min/well, an insulin-stimulated glucose uptake (3T3L1 cells; 10^−7 M peptide with 70 nM insulin) of 22.99 ± 2.8 pmol/min/well and a basal glucose uptake (3T3L1 cells; 10^−7 M) of 7.2±1.79 pmol/min/well. The “increase of basal glucose uptake” value (3T3L1 cells; both concentrations (10^−7 and 10^−6 M)) was “two-fold” and the ERK1/2 phosphorylation (ERK1/2 phosphorylation [5]) was “induced the phosphorylation of ERK1/2”.

B1: LVV-hemorphin 7 (LVVYPWTQRF) (peptide)
peptide: LVVYPWTQRF
notes: Globin fragment purified from sheep cerebral cortex; synthetic peptide used in the assays; also called LVV-H7; LV-H7
For B1, the Ki [6] was 845 nM, the “IC50 inhibition leucine β-naphthylamide” value [7] was 1500 nM and the IC50 [8] was 140 nM.
